For 14 compounds, IC50 results are on record in patent US9663510B2, “Substituted triazolopyridines and their use as TTK inhibitors” (Bayer Intellectual Property GmbH, priority 2011, dated 2017).

For one test, the target named is human kinase Mps-1 (Homo sapiens (Human), UniProt P33981). The experiment in a line: Mps-1 kinase assay (TR-FRET). The format is biochemical. (In general: TR-FRET usually uses a lanthanide donor and a delayed reading to cut background.)
Test [1] has as its system HeLa human cervical tumor cells. The experiment in a line: HeLa cell proliferation assay (crystal violet). It counts as cell-based. To be noted: 96 h, 4 days incubation, read-out: Inhibition of cell proliferation, cell Line: HeLa IC50.
Where [2] appears, read: read-out: Mps-1 Inhibition, IC50 (Assay with 10 μM ATP), 10 μM ATP.
The mark [3] stands for this setting: read-out: Mps-1 Inhibition, IC50 (Assay with 2 mM ATP), 2 mM ATP.

Read-outs that look alike come from different tables or passages of the source. Some results are limits rather than exact numbers.

Sequence of human kinase Mps-1 (P33981 whole entry): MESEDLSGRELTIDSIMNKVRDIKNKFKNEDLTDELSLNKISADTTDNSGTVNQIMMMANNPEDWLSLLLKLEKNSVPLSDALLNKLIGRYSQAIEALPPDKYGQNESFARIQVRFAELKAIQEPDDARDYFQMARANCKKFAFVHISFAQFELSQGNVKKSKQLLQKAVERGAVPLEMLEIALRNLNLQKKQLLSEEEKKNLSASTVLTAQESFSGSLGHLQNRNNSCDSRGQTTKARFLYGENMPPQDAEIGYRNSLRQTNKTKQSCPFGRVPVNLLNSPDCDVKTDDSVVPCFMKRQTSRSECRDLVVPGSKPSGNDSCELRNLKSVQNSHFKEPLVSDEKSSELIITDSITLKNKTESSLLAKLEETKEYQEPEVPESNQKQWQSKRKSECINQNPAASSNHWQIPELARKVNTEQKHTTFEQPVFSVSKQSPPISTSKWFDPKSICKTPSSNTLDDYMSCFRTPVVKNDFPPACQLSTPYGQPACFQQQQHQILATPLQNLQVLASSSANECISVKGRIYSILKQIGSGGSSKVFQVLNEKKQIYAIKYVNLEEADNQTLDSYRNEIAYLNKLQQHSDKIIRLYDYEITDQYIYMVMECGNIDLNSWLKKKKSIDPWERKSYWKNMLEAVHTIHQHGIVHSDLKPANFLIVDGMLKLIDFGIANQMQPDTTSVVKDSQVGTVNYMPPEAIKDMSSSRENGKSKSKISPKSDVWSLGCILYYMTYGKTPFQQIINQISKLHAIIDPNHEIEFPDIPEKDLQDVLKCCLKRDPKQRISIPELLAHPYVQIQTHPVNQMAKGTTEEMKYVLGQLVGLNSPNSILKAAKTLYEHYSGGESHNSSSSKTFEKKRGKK

Regarding `COc1cc(C(=O)N2CCCC2)ccc1Nc1nc2ccc(-c3ccc(NC(=O)[C@H](C)c4ccc(F)cc4)cc3)cn2n1` [Example01.13, (2R)-2-(4-fluorophenyl)-N-[4-(2-{[2-methoxy-4-(pyrrolidin-1-ylcarbonyl)phenyl]amino}[1,2,4]triazolo[1,5-a]pyridin-6-yl)phenyl]propanamide], the IC50 at human kinase Mps-1 (setting [2]) is less than 1 nM; at human kinase Mps-1 (setting [3]), less than 1 nM; in test [1] it was less than 400 nM.

As for `COc1cc(S(C)(=O)=O)ccc1Nc1nc2ccc(-c3ccc(NC(=O)[C@H](CO)c4ccc(F)cc4)cc3)cn2n1` [Example 01.17, (2S)-2-(4-fluorophenyl)-3-hydroxy-N-[4-(2-{[2-methoxy-4-(methylsulfonyl)phenyl]amino}[1,2,4]triazolo[1,5-a]pyridin-6-yl)phenyl]propanamide], the IC50 against human kinase Mps-1 (2 mM ATP) was 4.8 nM; at human kinase Mps-1 (setting [2]), less than 1 nM; in test [1] it was less than 600 nM.

`N[C@@H](C(=O)Nc1ccc(-c2ccc3nc(Nc4ccc(C(=O)N5CCCC5)cc4OCC(F)(F)F)nn3c2)cc1)c1ccc(F)cc1` [Example 01.25, (2R)-2-amino-2-(4-fluorophenyl)-N-[4-(2-{[4-(pyrrolidin-1-ylcarbonyl)-2-(2,2,2-trifluoroethoxyl)phenyl]amino}[1,2,4]triazolo[1,5-a]pyridin-6-yl)phenyl]ethanamide]: the IC50 at human kinase Mps-1 (setting [2]) was less than 1 nM; at human kinase Mps-1 (setting [3]) it was less than 1 nM; in test [1], less than 200 nM.

With `COc1cc(C(=O)N2CC(F)C2)ccc1Nc1nc2ccc(-c3ccc(NC(=O)[C@H](N)c4ccc(F)cc4)cc3)cn2n1` [Example 01.21, (2R)-2-amino-N-{4-[2-({4-[(3-fluoroazetidin-1-yl)carbonyl]-2-methoxyphenyl}amino)[1,2,4]triazolo[1,5-a]pyridin-6-yl]phenyl}-2-(4-fluorophenyl)ethanamide], the IC50 was less than 1 nM at human kinase Mps-1 (setting [2]), less than 1 nM on human kinase Mps-1 (setting [3]) and less than 200 nM in test [1].

As to `C[C@@H](C(=O)Nc1ccc(-c2ccc3nc(Nc4ccc(C(=O)N5CC(F)C5)cc4OCC(F)(F)F)nn3c2)cc1)c1ccc(F)cc1` [Example01.14, (2R)—N-{4-[2-({4-[(3-fluoroazetidin-1-yl)carbonyl]-2-(2,2,2-trifluoroethoxy)phenyl}amino)[1,2,4]triazolo[1,5-a]pyridin-6-yl]phenyl}-2-(4-fluorophenyl)propanamide], the IC50 on human kinase Mps-1 (setting [2]) and at human kinase Mps-1 (setting [3]) was less than 1 nM in each case.

With `COc1cc(C(=O)N2CCC2)ccc1Nc1nc2ccc(-c3ccc(NC(=O)[C@H](N)c4ccc(F)cc4)cc3)cn2n1` [Example 01.22, (2R)-2-amino-N-[4-(2-{[4-(azetidin-1-ylcarbonyl)-2-methoxyphenyl]amino}[1,2,4]triazolo[1,5-a]pyridin-6-yl)phenyl]-2-(4-fluorophenyl)ethanamide], the IC50 on human kinase Mps-1 (setting [2]) is less than 1 nM; on human kinase Mps-1 (setting [3]), less than 1 nM; in test [1] it was less than 200 nM.

Turning to `N[C@@H](C(=O)Nc1ccc(-c2ccc3nc(Nc4ccc(C(=O)N5CC(F)C5)cc4OCC(F)(F)F)nn3c2)cc1)c1ccc(F)cc1` [Example 01.24, (2R)-2-amino-N-{4-[2-({4-[(3-fluoroazetidin-1-yl)carbonyl]-2-(2,2,2-trifluoroethoxyl)phenyl}amino)[1,2,4]triazolo[1,5-a]pyridin-6-yl]phenyl}-2-(4-fluorophenyl)ethanamide], the IC50 on human kinase Mps-1 (setting [2]) is less than 1 nM; at human kinase Mps-1 (setting [3]), less than 1 nM; in test [1] it was less than 100 nM.

Take `C[C@@H](C(=O)Nc1ccc(-c2ccc3nc(Nc4ccc(C(=O)N5CC(O)C5)cc4OCC(F)(F)F)nn3c2)cc1)c1ccc(F)cc1` [Example01.15, (2R)-2-(4-fluorophenyl)-N-{4-[2-({4-[(3-hydroxyazetidin-1-yl)carbonyl]-2-(2,2,2-trifluoroethoxy)phenyl}amino)[1,2,4]triazolo[1,5-a]pyridin-6-yl]phenyl}propanamide]: the IC50 at human kinase Mps-1 (setting [2]) was less than 1 nM; on human kinase Mps-1 (setting [3]), less than 1 nM; in test [1], less than 100 nM.

`COc1cc(C(=O)N2CCCC2)ccc1Nc1nc2ccc(-c3ccc(NC(=O)[C@H](N)c4ccc(F)cc4)cc3)cn2n1` [Example 01.23, (2R)-2-amino-2-(4-fluorophenyl)-N-[4-(2-{[2-methoxy-4-(pyrrolidin-1-ylcarbonyl)phenyl]amino}[1,2,4]triazolo[1,5-a]pyridin-6-yl)phenyl]ethanamide]: the IC50 on human kinase Mps-1 (setting [2]) is less than 1 nM; at human kinase Mps-1 (setting [3]), less than 1 nM; in test [1] it was less than 400 nM.

Regarding `CS(=O)(=O)c1ccc(Nc2nc3ccc(-c4ccc(NC(=O)[C@H](N)c5ccc(F)cc5)cc4)cn3n2)c(OCC(F)(F)F)c1` [Example 01.19, (2R)-2-amino-2-(4-fluorophenyl)-N-[4-(2-{[4-(methylsulfonyl)-2-(2,2,2-trifluoroethoxyl)phenyl]amino}[1,2,4]triazolo[1,5-a]pyridin-6-yl)phenyl]ethanamide], the IC50 at human kinase Mps-1 (setting [2]) is less than 1 nM; on human kinase Mps-1 (setting [3]), less than 1 nM; in test [1] it was less than 200 nM.

Consider `C[C@@H](C(=O)Nc1ccc(-c2ccc3nc(Nc4ccc(C(=O)N5CCCC5)cc4OCC(F)(F)F)nn3c2)cc1)c1ccc(F)cc1` [Example 01.16, (2R)-2-(4-fluorophenyl)-N-[4-(2-{[4-(pyrrolidin-1-ylcarbonyl)-2-(2,2,2-trifluoroethoxyl)phenyl]amino}[1,2,4]triazolo[1,5-a]pyridin-6-yl)phenyl]propanamide], for which the results for the IC50 (against human kinase Mps-1 (2 mM ATP); at human kinase Mps-1 (setting [2]); in test [1]) were 1.3 nM, less than 1 nM and less than 100 nM, respectively.

With `COc1cc(C(=O)N(C)C)ccc1Nc1nc2ccc(-c3ccc(NC(=O)[C@H](C)c4ccc(F)cc4)cc3)cn2n1` [Example01.12, 4-{[6-(4-{[(2R)-2-(4-fluorophenyl)propanoyl]amino}phenyl)[1,2,4]triazolo[1,5-a]pyridin-2-yl]amino}-3-methoxy-N,N-dimethylbenzamide], the IC50 on human kinase Mps-1 (setting [2]) was less than 1 nM; on human kinase Mps-1 (setting [3]), less than 1 nM; in test [1], less than 200 nM.

For the compound `O=C(Nc1ccc(-c2ccc3nc(Nc4ccc(C(=O)N5CC(F)C5)cc4OCC(F)(F)F)nn3c2)cc1)[C@H](CO)c1ccc(F)cc1` [Example 01.18, (2S)—N-{4-[2-({4-[(3-fluoroazetidin-1-yl)carbonyl]-2-(2,2,2-trifluoroethoxyl)phenyl}amino)[1,2,4]triazolo[1,5-a]pyridin-6-yl]phenyl}-2-(4-fluorophenyl)-3-hydroxypropanamide], the IC50 on human kinase Mps-1 (setting [2]) is less than 1 nM; at human kinase Mps-1 (setting [3]), less than 1 nM; in test [1] it was less than 100 nM.

In the case of `COc1cc(N2CCOC2=O)ccc1Nc1nc2ccc(-c3ccc(NC(=O)[C@H](N)c4ccc(F)cc4)cc3)cn2n1` [Example 01.20, (2R)-2-amino-2-(4-fluorophenyl)-N-[4-(2-{[2-methoxy-4-(2-oxo-1,3-oxazolidin-3-yl)phenyl]amino}[1,2,4]triazolo[1,5-a]pyridin-6-yl)phenyl]ethanamide], the IC50 is 1.5 nM against human kinase Mps-1 (2 mM ATP), less than 1 nM at human kinase Mps-1 (setting [2]) and less than 200 nM in test [1].
